Results: US20190365754A1, “METHOD OF ELIMINATING STEM CELLS” (Yissum Research Development Company Of The Hebrew …, priority 2014, published 2019)

Columns and labels:
[1] = test system: beta catenin, p53, DNA damage response; experiment: Stabilization of beta catenin and p53 and DNA damage response by CKI inhibitors
[2] = test system: leukemia initiating cells (LIC); experiment: BCR-ABL CML blast crisis mouse model, in vivo treatment
Method: To generate the BCR-ABL-inducible CML model, BM cells from MxCre^− Ck1α1^fl/fl or MxCre^+ Ck1 α1^fl/fl were extracted and enriched for cKit expressing cells (EasySep #18757) and incubated overnight in RPMI supplemented with 15% FCS L-Glutamine, Pen/Strep (Beit Haemek) and stem cell factor (SCF), IL-3, IL-6 and TPO (Peprotech). The culture was then infected with p210BCR-ABL-IRES-GFP retrovirus construct containing supernatant medium for 4 hours and returned to medium for additional 24 h. The culture was then injected I.V. into sub-lethally irradiated (500 rad) mice. Upon detectable steady increase of GFP expressing cells in the mice peripheral blood (by FACS) and rise in leukocyte numbers and immature cells (detected by Wright-Giemsa stained blood films) the mice were sacrificed and their bone marrow was transferred to sub-lethally irradiated WT hosts.
Each such transfer was termed disease generation. By the fourth transfer, the hosts were no longer sub-lethally irradiated prior to disease transfer and the time between generations was shorter (usually 10 days). Blast crisis development was easily detectable by the highly abnormal number of blast cells (more than 30% of WBC in PB) and the shortening time between transfers. The experimental procedure is illustrated in FIG. 3. Experiments were performed on late generation diseases in which blasts were easily detectable, no irradiation of hosts was necessary and the generation time was short (up to 14 days). Mice were monitored daily for cachexia, lethargy, and ruff coats, paralysis and moribund mice were sacrificed.
(§1) The PF670462 was dissolved in 20% 2-hydroxypropyl β-cyclodextrin (vehicle) and administered by daily I.P. of 60 mg/Kg starting 7 hour after disease transfer. The control mice were treated with the vehicle only.

[3] = test system: β-catenin, p53, c-Myc; experiment: Western blot of bone marrow from inhibitor-treated CML carrying mice; type: in vivo, mouse; conditions: daily i.p. 60 mg/Kg; FIG. 6B
Method: as §1
Whole cell lysate were extracted in the presence of protease and phosphatase inhibitors from the bone marrow of CML carrying mice treated with either vehicle or PF670462.
Protein extracts, separated by […] and transferred onto nitrocellulose membranes, were probed with antibodies against beta-catenin, c-Myc, p53 and HSP90. Proteins of interest were detected with HRP-conjugated Donkey/Rabbit anti-mouse IgG antibody (1:5000. GE Healthcare, Uppsala, Sweden) and visualized with the Pierce ECL Western blotting substrate (Thermo Scientific, Rockford, Ill.), according to the provided protocol.

[4] = test system: leukemic cells; experiment: 7AAD-/Annexin+ apoptosis assay, leukemic cells; type: cell-based, mouse; conditions: FIG. 5D
Method: (§2) Freshly isolated bone marrow from CML carrying mice was mixed with normal mice bone marrow in a 1:1 ratio and grown in RPMI supplemented with 15% FCS L-Glutamine, Pen/Strep, Hepes, Sodium Pyruvate, non-essential amino acids (Beit Haemek). PF670462 inhibitor was dissolved in DMSO and added to the tissue culture medium at the indicated concentrations and 0.1% DMSO. As for control, the cells were treated with vehicle only. After 36-48 h, cells were harvested and counted manually using a camera and standard inverted light microscope. Dead cells were excluded using Trypan Blue (sigma). The number of normal and BCR-ABL expressing cells was later extrapolated according to FACS analysis of % GFP^+/7AAD^− expressing cells. AnnexinV-PE (MBL), 7AAD (Tonbo) staining was evaluated by FACS according to manufacturer's recommendation.

[5] = test system: normal BM cells; experiment: In vitro inhibitor test, normal cell number in 1:1 mixed CML/normal bone marrow culture; type: cell-based, mouse; conditions: increasing concentration of inhibitor
Method: as §2

[6] = test system: BCR-ABL expressing (GFP+) leukemic cells; experiment: In vitro inhibitor test, leukemic cell number in 1:1 mixed CML/normal bone marrow culture; type: cell-based; conditions: increasing concentration of inhibitor
Method: as §2

[7] = test system: WT BM cells; experiment: 7AAD-/Annexin+ apoptosis assay, WT BM cells; type: cell-based, mouse; conditions: FIG. 5D
Method: as §2

[8] = test system: Wnt and p53 pathway; experiment: Quantitative RT-PCR of p53 and Wnt targets in inhibitor-treated bone marrow cells; type: cell-based, mouse; conditions: bone marrow cells treated in vitro; FIG. 5B
Method: as §2
Total RNA from cells was extracted using DirectZol RNA miniprep (Zymed). cDNA was generated using a poly(dT) oligonucleotides (IDT) and MMLV—Reverse Transcriptase (Invitrogen) and amplified on a 7900HT Real Time PCR System (Applied Biosystems) using Platinum® SYBR® Green (Invitrogen) according to the manufacturer's instructions. At least triplicate reactions were performed for each gene. Melting curve analysis was performed after each run to control for the nonspecific PCR products and primer dimers. […]

[9] = bone marrow of inhibitor-treated mice transplanted to lethally irradiated mice, one month after transplantation

NCCNS(=O)(=O)c1ccc(Cl)c2ccncc12 [CKI7]
induction of a DNA damage response [1]: nor do they induce a DNA damage response | stabilization of beta catenin and p53 [1]: none of these agents stabilize beta catenin and p53

NC(=O)c1ccc(-c2nc(-c3ccc4c(c3)OCCO4)c(-c3ccccn3)[nH]2)cc1 [D4476]
induction of a DNA damage response [1]: nor do they induce a DNA damage response | stabilization of beta catenin and p53 [1]: none of these agents stabilize beta catenin and p53

COc1cc(OC)c(C=C2C(O)=Nc3ccccc32)c(OC)c1 [IC261]
induction of a DNA damage response [1]: nor do they induce a DNA damage response | stabilization of beta catenin and p53 [1]: none of these agents stabilize beta catenin and p53

Nc1nccc(-c2c(-c3ccc(F)cc3)ncn2C2CCCCC2)n1 [PF670462]
bone marrow reconstitution of secondary recipients (LT-HSC integrity) [2, 9]: fully reconstitute | leukemia GFP+ cells in peripheral blood of secondary recipients [2, 9]: no evidence of leukemia GFP+ cells | GFP+ leukemic cells in peripheral blood ([2]; daily i.p. 60 mg/Kg starting 7 hour after disease transfer, FIG. 6C): almost undetectable | bone marrow / vertebrate histology ([2]; daily i.p. 60 mg/Kg, FIG. 6D): normal bone marrow appearance with intact vertebrates | blasts in peripheral blood ([2]; daily i.p. 60 mg/Kg, FIG. 6E): no blast were detected | survival of leukemic mice ([2]; daily i.p. 60 mg/Kg, vehicle group died within 12 days, FIG. 6F): remained alive | β-catenin, p53 and c-Myc protein in bone marrow (Western blot) [3]: stabilization of β-catenin and p53 and induction of the Wnt target gene c-Myc | apoptotic cell rate (7AAD-/Annexin+) [4]: increase in apoptotic cell rate under the inhibitor treatment in a dosage dependent manner | normal BM cell number [5]: only slightly reduced | decline in leukemic cell number [6]: much more prominent | apoptotic cell rate (7AAD-/Annexin+) [7]: not significantly effected | expression of Wnt and p53 targets (RT-PCR) [8]: upregulation of Wnt and p53 in a dose dependent manner
